Results published in patent publication US6498125B2, “Pyridine ketones useful as herbicides” (Syngenta Participations AG, priority 1998, dated 2002).

Assays:
[1] = system: Monocotyledonous and dicotyledonous test plants; assay: Example B1: pre-emergence herbicidal action, 2 kg of AS/ha; assay type: in vivo; conditions: 3 weeks, scale 1-9; for pre-emergence action rating, Avena: test plant Avena; for pre-emergence action rating, Cyperus: test plant Cyperus; for pre-emergence action rating, Setaria: test plant Setaria; for pre-emergence action rating, Sinapis: test plant Sinapis; for pre-emergence action rating, Solanum: test plant Solanum; for pre-emergence action rating, Stellaria: test plant Stellaria
Description: Monocotyledonous and dicotyledonous test plants are sown in standard soil in plastic pots. Immediately after sowing, the test substances are sprayed on (500 l of water/ha) as an aqueous suspension (prepared from a 25% wettable powder (Example F3, b) according to WO 97/34485) or emulsion (prepared from a 25% emulsion concentrate (Example F1, c)), corresponding to a dosage of 2 kg of AS/ha. The test plants are then grown under optimum conditions in a greenhouse. After a test period of 3 weeks, the test is evaluated with a nine-level scale of ratings (1=complete damage, 9=no effect). Ratings of 1 to 4 (in particular 1 to 3) mean good to very good herbicidal action.

[2] = system: Monocotyledonous and dicotyledonous test plants; assay: Example B2: post-emergence herbicidal action, 2 kg of AS/ha; assay type: in vivo; parameters: key: 1 = complete damage, 9 = no effect; conditions: 4- to 6-leaf stage, about 18 days, scale 1-9; for post-emergence action rating, Avena: test plant Avena; for post-emergence action rating, Setaria: test plant Setaria; for post-emergence action rating, Sinapis: test plant Sinapis; for post-emergence action rating, Solanum: test plant Solanum; for post-emergence action rating, Stellaria: test plant Stellaria
Description: Monocotyledonous and dicotyledonous test plants are grown in plastic pots with standard soil in a greenhouse and, in the 4- to 6-leaf stage, are sprayed with an aqueous suspension of the test substances of the formula 1, prepared from a 25% wettable powder (Example F3, b) according to WO 97134485) or with an emulsion of the test substances of the formula I, prepared from a 25% emulsion concentrate (Example F1, c) according to WO 97/34485), corresponding to a dosage of 2 kg of AS/ha (500 l of water/ha). The test plants are then grown further under optimum conditions in a greenhouse. After a test period of about 18 days, the test is evaluated with a nine-level scale of rating (1=complete damage, 9=no effect). Ratings of 1 to 4 (in particular 1 to 3) mean good to very good herbicidal action. In this test, the compounds of the formula I show strong herbicidal action.

Structure (SMILES) | pre-emergence action rating, Avena [1] | pre-emergence action rating, Cyperus [1] | pre-emergence action rating, Setaria [1] | pre-emergence action rating, Sinapis [1] | pre-emergence action rating, Solanum [1] | pre-emergence action rating, Stellaria [1] | post-emergence action rating, Avena [2] | post-emergence action rating, Setaria [2] | post-emergence action rating, Sinapis [2] | post-emergence action rating, Solanum [2] | post-emergence action rating, Stellaria [2]
CCOC(=O)OC1=C(C(=O)c2ccc(C(F)(F)F)nc2C)C(=O)C2CCC1C2 (stereo not shown) [Compound 1.409] | 1 | 1 | 1 | 1 | 1 | 1 | 2 | 1 | 1 | 1 | 2
O=C(C1=C(O)C2CCC(C2)C1=O)c1ccc(C(F)(F)F)nc1C1CC1 (stereo not shown) [Compound 1.042] | 4 | 2 | 2 | 1 | 1 | 4 | 2 | 2 | 1 | 2 | 2
Cc1nc(C(F)(F)F)ccc1C(=O)C1=C(O)C2CCC(C2)C1=O (stereo not shown) [Compound 1.009, 4-hydroxy-3-(2-methyl-6-trifluoromethylpyridine-3-carbonyl)bicyclo[3.2.1]oct-3-en-2-one] | 2 | 1 | 1 | 2 | 1 | 2 | 1 | 1 | 1 | 1 | 2
CC=CC(=O)OC1=C(C(=O)c2ccc(C(F)(F)F)nc2C)C(=O)C2CCC1C2 (stereo not shown) [Compound 1.406] | 2 | 1 | 1 | 1 | 1 | 2 | 2 | 2 | 1 | 1 | 2
Cc1nc(C(F)(F)Cl)ccc1C(=O)C1=C(O)C2CCC(C2)C1=O (stereo not shown) [Compound 1.195] | 2 | 1 | 1 | 1 | 1 | 2 | 2 | 2 | 1 | 2 | 2
COCCc1nc(C(F)(F)F)ccc1C(=O)C1=C(O)C2CCC(C2)C1=O (stereo not shown) [Compound 1.023] | 2 | 2 | 2 | 1 | 1 | 2 | 2 | 2 | 1 | 2 | 2
O=C(C1=C(O)C2CCC(C2)C1=O)c1ccc(C(F)(F)F)nc1C(F)F (stereo not shown) [Compound 1.005] | 4 | 1 | 1 | 1 | 1 | 1 | 2 | 2 | 1 | 2 | 2
COCc1nc(C(F)(F)F)ccc1C(=O)C1=C(O)C2CCC(C2)C1=O (stereo not shown) [Compound 1.021] | 4 | 2 | 1 | 1 | 1 | 3 | 2 | 4 | 1 | 2 | 2
Cc1cc(C(F)(F)F)ncc1C(=O)C1=C(O)C2CCC(C2)C1=O (stereo not shown) [Compound 1.362] | – | – | – | – | – | – | 3 | 2 | 1 | 2 | 2
Cc1nc(C(F)(F)F)ccc1C(=O)C1=C(O)C(C)(C)C=CC1=O [Compound 5.085] | – | – | – | – | – | – | 3 | 2 | 1 | 2 | 2
CC(C)c1nc(C(F)(F)F)ccc1C(=O)C1=C(O)C2CCC(C2)C1=O (stereo not shown) [Compound 1.011] | 2 | 1 | 1 | 1 | 1 | 1 | 2 | 2 | 2 | 2 | 2
Cc1nc(C(F)(F)F)ccc1C(=O)C1=C(Sc2ccccc2)C2CCC(C2)C1=O (stereo not shown) [Compound 1.381] | 4 | 1 | 2 | 2 | 1 | 1 | 2 | 2 | 2 | 2 | 2
C#CCOc1nc(C(F)(F)F)ccc1C(=O)C1=C(O)C2CCC(C2)C1=O (stereo not shown) [Compound 1.048] | – | – | – | – | – | – | 2 | 1 | 1 | 1 | 2
Cc1c(C(=O)C2=C(O)C3CCC(C3)C2=O)ccc(C(F)(F)F)[n+]1[O-] (stereo not shown) [Compound 1.06] | 2 | 1 | 1 | 2 | 1 | 1 | 2 | 1 | 1 | 1 | 2
CS(=O)(=O)Cc1nc(C(F)(F)F)ccc1C(=O)C1=C(O)C2CCC(C2)C1=O (stereo not shown) [Compound 1.026] | – | – | – | – | – | – | 3 | 1 | 1 | 1 | 2
CCC1=CC(C)(C)C(O)=C(C(=O)c2ccc(C(F)(F)F)nc2C)C1=O [Compound 5.081] | – | – | – | – | – | – | 3 | 2 | 1 | 1 | 2
CCc1nc(C(F)(F)F)ccc1C(=O)C1=C(O)C(C)(C)ON(C)C1=O [Compound 4.01] | – | – | – | – | – | – | 3 | 3 | 2 | 2 | 2
O=C(C1=C(O)C2CCC(C2)C1=O)c1ccc(C(F)(F)F)nc1 (stereo not shown) [Compound 1.001] | – | – | – | – | – | – | 3 | 2 | 1 | 2 | 2
CCCc1nc(C(F)(F)F)ccc1C(=O)C1=C(O)C2CCC(C2)C1=O (stereo not shown) [Compound 1.012] | – | – | – | – | – | – | 3 | 2 | 1 | 2 | 2
O=C(C1=C(O)C2CCC(C2)C1=O)c1ccc(C(F)(F)F)nc1C(F)(F)F (stereo not shown) [Compound 1.008] | – | – | – | – | – | – | 2 | 2 | 1 | 2 | 2
